Measurements from US8367367B2, “Kit for positively detecting toxic material” (Samsung Electronics Co., Ltd., priority 2006, dated 2013).
Where two headings read alike, the source gives them in different places.

Legend:
[1] = system: electron transfer system of the sub-mitochondrial particles; settings: 10 min
Method: FIG. 3A is a graph illustrating the pH values at one-minute intervals when 20 wt % of ethanol, (toxic material) and 20 wt % of sorbitol (non-toxic material) are added to sub-mitochondrial particles and an electron donor to cause reactions.
FIGS. 5A and 5B illustrate an exemplary embodiment of a method of positively detecting toxic materials in which phenolphthalein is used as a pH indicator. FIG. 5A is a graph illustrating pH values at two-minute intervals when 20 wt % of ethanol (toxic material), 2.5 wt % of ethanol (toxic material), and 20 wt % of sorbitol (non-toxic material) were added to sub-mitochondrial particles and an electron donor to cause reactions. FIG. 5B is a graph and showing the final pH value of each reactant after the reaction solutions were allowed to react for 10 minutes according to the reaction described in FIG. 5A.

[2] = system: electron transfer system of the sub-mitochondrial particles
From the text: NaOH was adequately added to a pH indicator, phenol red, to adjust the pH to 10. […] The reaction resultants obtained by the above process and a phenol red solution were mixed together with the weight ratio of 1:1 to identify the color of the mixture solution.

final pH of the reaction resultant ([1]; 20 wt %) | color of the mixture solution (phenol red) [2] | final pH of the reaction resultant ([1]; 2.5 wt %) | Structure (SMILES)
9.17 | remain the same | – | OC[C@@H](O)[C@@H](O)[C@H](O)[C@@H](O)CO [sorbitol]
6.43 | – | 8.16 | CCO [ethanol]
